In PubChem BioAssay (NCI) one finds TGI data, which are given here for 13 compounds.

Test systems include HT29 colon; CAKI-1 renal; A498 renal; A549 NSCLC; SNB-75 CNS; KM12 colon; NCI-H522 lung; HOP-92 NSCLC; IGROV1 ovarian; RPMI-8226 leukemia.
What all share (assay): NCI-60 cell line screen, 48 h

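All cell lines were grown in 96-well plates and treated with compound for 48 hours. The concentration for full growth arrest is given as TGI.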

Regarding `O=C(CSC1=NCCN1)Nc1ccccc1`, the TGI with HT29 colon is greater than 100 µM; in the experiment with CAKI-1 renal, greater than 100 µM; in the experiment on A498 renal, greater than 100 µM; in the experiment with A549 NSCLC it was greater than 100 µM; in the experiment with SNB-75 CNS, 43.5 µM; in the experiment with KM12 colon, greater than 100 µM. Moreover, the TGI with NCI-H522 lung is 38.7 µM; in the experiment with HOP-92 NSCLC, 91 µM; in the experiment with IGROV1 ovarian it was greater than 100 µM; with RPMI-8226 leukemia, greater than 100 µM.

Regarding `COc1cc(/C=C(/C#N)C(N)=O)ccc1O`, the TGI was greater than 100 µM in the experiment with HT29 colon; greater than 100 µM in the experiment on CAKI-1 renal; greater than 100 µM with A498 renal; greater than 100 µM in the experiment with A549 NSCLC; greater than 85.6 µM in the experiment with SNB-75 CNS; greater than 100 µM in the experiment with KM12 colon. Moreover, the TGI with NCI-H522 lung, in the experiment on HOP-92 NSCLC, in the experiment with IGROV1 ovarian and with RPMI-8226 leukemia was greater than 100 µM throughout.

Turning to `COC(=O)C1=C(C)N2[C@H](C(=O)O)CO[C@@]2(C)[C@H](C(=O)OC)[C@H]1c1cccc([N+](=O)[O-])c1`, the TGI in the experiment with HT29 colon, in the experiment on CAKI-1 renal, with A498 renal, in the experiment with A549 NSCLC, with SNB-75 CNS and in the experiment with KM12 colon was greater than 100 µM in each case. The TGI in the experiment with NCI-H522 lung, with HOP-92 NSCLC, in the experiment with IGROV1 ovarian and with RPMI-8226 leukemia was greater than 100 µM throughout.

`CC(=O)OCC1OC(n2c(=O)[nH]c(=O)c3sccc32)C(Br)C1OC(C)=O` (configuration not stated): the TGI with HT29 colon, with CAKI-1 renal, in the experiment with A498 renal, with A549 NSCLC, in the experiment with SNB-75 CNS and with KM12 colon was greater than 100 µM throughout. Besides, the TGI with NCI-H522 lung, with HOP-92 NSCLC, in the experiment on IGROV1 ovarian and with RPMI-8226 leukemia was greater than 100 µM each time.

`N#C/C(=C\c1c[nH]c2ccccc12)C(=O)c1ccc(O)c(O)c1`: the TGI in the experiment on HT29 colon is greater than 70.8 µM; with CAKI-1 renal, greater than 100 µM; in the experiment with A498 renal it was greater than 100 µM; with A549 NSCLC, 98.7 µM; with SNB-75 CNS, greater than 100 µM; in the experiment on KM12 colon, greater than 100 µM. Moreover, the TGI is greater than 93 µM in the experiment with NCI-H522 lung, 99.2 µM with HOP-92 NSCLC, greater than 89.4 µM with IGROV1 ovarian and greater than 31.6 µM in the experiment with RPMI-8226 leukemia.

As to `COc1ccc(-n2cnc3c(NC(CCSC)C(=O)O)ncnc32)cc1` (configuration not stated), the TGI in the experiment on HT29 colon, in the experiment with CAKI-1 renal, with A498 renal, in the experiment with A549 NSCLC, in the experiment with SNB-75 CNS and with KM12 colon was greater than 100 µM throughout. Moreover, the TGI with NCI-H522 lung, in the experiment with HOP-92 NSCLC, with IGROV1 ovarian and in the experiment on RPMI-8226 leukemia was greater than 100 µM each time.

As to `CCN(CC)Cc1sc2nc3ccccc3n2c1-c1ccc(OC)cc1`, the TGI is 40.7 µM in the experiment on HT29 colon; greater than 100 µM in the experiment on CAKI-1 renal; 71.6 µM in the experiment with A498 renal; greater than 100 µM in the experiment on A549 NSCLC; greater than 100 µM in the experiment with SNB-75 CNS; greater than 100 µM with KM12 colon. In addition, the TGI in the experiment with NCI-H522 lung was greater than 100 µM; with HOP-92 NSCLC, greater than 100 µM; with IGROV1 ovarian it was greater than 100 µM; in the experiment with RPMI-8226 leukemia, 33.1 µM.

With `COc1cc2c(cc1OC)C1(c3ccc(Cl)cc3)ON=C(c3ccccc3)N1CS2` (configuration not stated), the TGI with HT29 colon, in the experiment with CAKI-1 renal, with A498 renal, in the experiment on A549 NSCLC, in the experiment on SNB-75 CNS and with KM12 colon was greater than 100 µM throughout. Further, the TGI in the experiment on NCI-H522 lung, with HOP-92 NSCLC, in the experiment on IGROV1 ovarian and with RPMI-8226 leukemia was greater than 100 µM throughout.

Consider `COc1nc(N)c(N=CC(OC(C)=O)C(OC(C)=O)C(COC(C)=O)OC(C)=O)c(=O)n1C` (configuration not stated), for which the TGI in the experiment with HT29 colon, in the experiment on CAKI-1 renal, with A498 renal, with A549 NSCLC, in the experiment with SNB-75 CNS and in the experiment on KM12 colon was greater than 100 µM in each case. In addition, the TGI in the experiment on NCI-H522 lung, with HOP-92 NSCLC, in the experiment with IGROV1 ovarian and in the experiment on RPMI-8226 leukemia was greater than 100 µM each time.

As to `CC(C)(C)c1cc(C2COC(c3cc(C(C)(C)C)c(O)c(C(C)(C)C)c3)CO2)cc(C(C)(C)C)c1O` (configuration not stated), the TGI with HT29 colon, in the experiment with CAKI-1 renal, with A498 renal, with A549 NSCLC, in the experiment with SNB-75 CNS and in the experiment on KM12 colon was greater than 100 µM throughout. In addition, the TGI with NCI-H522 lung, in the experiment with HOP-92 NSCLC, with IGROV1 ovarian and in the experiment with RPMI-8226 leukemia was greater than 100 µM each time.

On to `c1ccc2c3c([nH]c2c1)C1CCCN1CC3` (configuration not stated), for which the TGI in the experiment with HT29 colon, in the experiment on CAKI-1 renal, in the experiment with A498 renal, in the experiment with SNB-75 CNS, with KM12 colon and with NCI-H522 lung was greater than 10 µM throughout. Besides, the TGI in the experiment on HOP-92 NSCLC, in the experiment on IGROV1 ovarian and in the experiment with RPMI-8226 leukemia was greater than 10 µM each time.

Turning to `COc1cc(-c2cc(-c3cc([N+](=O)[O-])c(/C=N/NC(=O)c4ccncc4)o3)ccc2OC)ccc1C`, the TGI in the experiment on HT29 colon, with CAKI-1 renal, with A498 renal, in the experiment on A549 NSCLC, in the experiment on SNB-75 CNS and with NCI-H522 lung was greater than 100 µM in each case. Further, the TGI in the experiment with HOP-92 NSCLC, in the experiment with IGROV1 ovarian and with RPMI-8226 leukemia was greater than 100 µM in each case.

`COC12c3ccccc3-c3ccccc3C1[C@H]1C(=O)OC(=O)[C@H]12` (some centres not stated): the TGI with HT29 colon, in the experiment on CAKI-1 renal, with A498 renal, in the experiment on SNB-75 CNS, in the experiment with KM12 colon and with NCI-H522 lung was greater than 10 µM each time. The TGI with HOP-92 NSCLC, in the experiment with IGROV1 ovarian and with RPMI-8226 leukemia was greater than 10 µM throughout.
